In ChEMBL document CHEMBL1155403, “Simple and conveniently accessible bi-fluorescence-labeled substrates for amylases” (Bioorg Med Chem Lett, 2010):
Active and inactive are the calls of the source. No cut-off for these calls is given here.

Molecular target: T1, Alpha-amylase 1A (Homo sapiens) (UniProt P0DUB6)
T1 sequence (whole entry): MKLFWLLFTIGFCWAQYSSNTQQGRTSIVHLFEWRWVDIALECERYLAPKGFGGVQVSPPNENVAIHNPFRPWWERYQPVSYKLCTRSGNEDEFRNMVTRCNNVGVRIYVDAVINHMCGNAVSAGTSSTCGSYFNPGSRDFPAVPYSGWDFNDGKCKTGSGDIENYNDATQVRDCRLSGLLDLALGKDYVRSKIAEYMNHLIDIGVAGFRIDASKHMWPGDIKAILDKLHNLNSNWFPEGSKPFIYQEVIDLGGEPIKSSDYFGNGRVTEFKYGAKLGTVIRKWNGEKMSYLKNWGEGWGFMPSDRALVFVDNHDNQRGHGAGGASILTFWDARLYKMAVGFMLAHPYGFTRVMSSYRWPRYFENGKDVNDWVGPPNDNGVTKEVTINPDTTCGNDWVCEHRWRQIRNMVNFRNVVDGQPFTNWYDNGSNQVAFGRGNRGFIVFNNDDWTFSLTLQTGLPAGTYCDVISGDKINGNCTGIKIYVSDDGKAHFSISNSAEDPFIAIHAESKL
Experiment: Activity of human salivary alpha amylase by FRET assay

Activity | Structure (SMILES)
inactive | CN(C)c1cccc2c(S(=O)(=O)NCCSCCCCCS[C@@H]3O[C@H](CO)[C@@H](O[C@H]4O[C@H](COCc5ccc6ccccc6c5)[C@@H](O)[C@H](O)[C@H]4O)[C@H](O)[C@H]3O)cccc12
Active | CN(C)c1cccc2c(S(=O)(=O)NCCSCCCCCS[C@@H]3O[C@H](CO)[C@@H](O[C@H]4O[C@H](CO)[C@@H](O[C@H]5O[C@H](CO)[C@@H](O[C@H]6O[C@H](CO)[C@@H](O[C@H]7O[C@H](CO)[C@@H](O[C@H]8O[C@H](COCc9ccc%10ccccc%10c9)[C@@H](O)[C@H](O)[C@H]8O)[C@H](O)[C@H]7O)[C@H](O)[C@H]6O)[C@H](O)[C@H]5O)[C@H](O)[C@H]4O)[C@H](O)[C@H]3O)cccc12
